ChEMBL document CHEMBL2073767, “Novel membrane transporter OCTN1 mediates multispecific, bidirectional, and pH-dependent transport of organic cations” (J Pharmacol Exp Ther, 1999)

Columns and labels:
[1] = target: T1, Solute carrier family 22 member 4 (Homo sapiens, UniProt Q9H015); assay: TP_TRANSPORTER: inhibition of TEA uptake (TEA: 60 uM, Verapamil: 1000 uM) in Xenopus laevis oocytes; format: functional, cell-based, Oocyte; design: scale not given: the % may be the effect or the level left; details: probe TEA, read-out: Activity
T1 sequence (Q9H015 whole entry): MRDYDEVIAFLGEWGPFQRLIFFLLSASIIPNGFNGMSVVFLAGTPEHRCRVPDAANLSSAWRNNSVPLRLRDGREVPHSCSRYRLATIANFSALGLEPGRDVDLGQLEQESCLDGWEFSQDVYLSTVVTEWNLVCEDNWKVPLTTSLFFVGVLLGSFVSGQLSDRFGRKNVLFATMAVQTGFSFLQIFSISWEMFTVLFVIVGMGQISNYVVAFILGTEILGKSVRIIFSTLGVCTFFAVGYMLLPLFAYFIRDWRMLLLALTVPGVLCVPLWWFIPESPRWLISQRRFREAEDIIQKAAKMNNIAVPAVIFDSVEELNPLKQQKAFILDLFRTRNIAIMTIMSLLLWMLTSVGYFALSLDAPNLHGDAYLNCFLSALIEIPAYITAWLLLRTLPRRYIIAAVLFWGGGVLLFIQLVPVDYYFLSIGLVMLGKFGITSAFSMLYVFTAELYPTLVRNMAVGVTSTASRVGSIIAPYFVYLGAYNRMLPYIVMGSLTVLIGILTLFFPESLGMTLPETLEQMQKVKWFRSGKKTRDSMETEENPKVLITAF

[2] = target: T1, Solute carrier family 22 member 4; assay: TP_TRANSPORTER: uptake in Xenopus laevis oocytes; format: functional, cell-based; details: oocyte
[3] = target: T1, Solute carrier family 22 member 4; assay: TP_TRANSPORTER: inhibition of TEA uptake (TEA: 60 uM, PAH: 5000 uM) in Xenopus laevis oocytes; format: functional, cell-based; details: oocyte
[4] = target: T1, Solute carrier family 22 member 4; assay: TP_TRANSPORTER: inhibition of TEA uptake (TEA: 60 uM, Arginine: 5000 uM) in OCTN1-expressing HEK293 cells; format: functional, cell-based; details: hek293, 5000 µM
[5] = target: T1, Solute carrier family 22 member 4; assay: TP_TRANSPORTER: inhibition of TEA uptake (TEA: 60 uM, L-Carnitine: 1000 uM) in Xenopus laevis oocytes; format: functional, cell-based, Oocyte; design: scale not given: the % may be the effect or the level left; details: probe TEA, read-out: Activity
[6] = target: T1, Solute carrier family 22 member 4; assay: TP_TRANSPORTER: inhibition of TEA uptake (TEA: 60 uM, CER: 1000 uM) in Xenopus laevis oocytes; format: functional, cell-based, Oocyte; design: scale not given: the % may be the effect or the level left; details: probe TEA, read-out: Activity
[7] = target: T1, Solute carrier family 22 member 4; assay: in vitro; details: xenopus laevis, Xenopus laevis oocytes, probe TEA
Description: TP_TRANSPORTER: inhibition of TEA uptake (TEA: 60 uM, Choline: 5000 uM) in Xenopus laevis oocytes

[8] = target: T1, Solute carrier family 22 member 4; assay: in vitro; details: xenopus laevis, Xenopus laevis oocytes, probe TEA; remark: listed apart in the source
[9] = target: T1, Solute carrier family 22 member 4; assay: TP_TRANSPORTER: inhibition of TEA uptake (TEA: 60 uM, D-Carnitine: 1000 uM) in Xenopus laevis oocytes; format: functional, cell-based, Oocyte; design: scale not given: the % may be the effect or the level left; details: probe TEA, read-out: Activity
[10] = target: T1, Solute carrier family 22 member 4; assay: TP_TRANSPORTER: inhibition of TEA uptake (TEA: 60 uM, Guanidine: 5000 uM) in Xenopus laevis oocytes; format: functional, cell-based, Oocyte; design: scale not given: the % may be the effect or the level left; details: probe TEA, read-out: Activity
[11] = target: T1, Solute carrier family 22 member 4; assay: TP_TRANSPORTER: inhibition of TEA uptake (TEA: 60 uM, Levofloxacin: 1000 uM) in Xenopus laevis oocytes; format: functional, cell-based; design: scale not given: the % may be the effect or the level left; details: oocyte
[12] = target: T1, Solute carrier family 22 member 4; assay: TP_TRANSPORTER: inhibition of TEA uptake (TEA: 60 uM, Lysine: 5000 uM) in Xenopus laevis oocytes; format: functional, cell-based; details: oocyte
[13] = target: T1, Solute carrier family 22 member 4; assay: in vitro; details: xenopus laevis, Xenopus laevis oocytes, probe TEA; remark: listed apart in the source
Description: TP_TRANSPORTER: inhibition of TEA uptake (TEA: 60 uM, Nicotine: 1000 uM) in Xenopus laevis oocytes

[14] = target: T1, Solute carrier family 22 member 4; assay: TP_TRANSPORTER: inhibition of TEA uptake (TEA: 60 uM, NMN: 5000 uM) in Xenopus laevis oocytes; format: functional, cell-based; details: oocyte
[15] = target: T1, Solute carrier family 22 member 4; assay: TP_TRANSPORTER: inhibition of TEA uptake (TEA: 60 uM, OFLX: 1000 uM) in Xenopus laevis oocytes; format: functional, cell-based, Oocyte; design: scale not given: the % may be the effect or the level left; details: probe TEA, read-out: Activity
[16] = target: T1, Solute carrier family 22 member 4; assay: TP_TRANSPORTER: inhibition of TEA uptake (TEA: 60 uM, PCG: 5000 uM) in Xenopus laevis oocytes; format: functional, cell-based; details: oocyte
[17] = target: T1, Solute carrier family 22 member 4; assay: TP_TRANSPORTER: inhibition of TEA uptake (TEA: 60 uM, Procainamide: 1000 uM) in Xenopus laevis oocytes; format: functional, cell-based, Oocyte; design: scale not given: the % may be the effect or the level left; details: probe TEA, read-out: Activity
[18] = target: T1, Solute carrier family 22 member 4; assay: TP_TRANSPORTER: inhibition of TEA uptake (TEA: 60 uM, Pyrilamine: 1000 uM) in Xenopus laevis oocytes; format: functional, cell-based, Oocyte; design: scale not given: the % may be the effect or the level left; details: probe TEA, read-out: Activity
[19] = target: T1, Solute carrier family 22 member 4; assay: TP_TRANSPORTER: inhibition of TEA uptake (TEA: 60 uM, Quinidine: 1000 uM) in Xenopus laevis oocytes; format: functional, cell-based, Oocyte; design: scale not given: the % may be the effect or the level left; details: probe TEA, read-out: Activity
[20] = target: T1, Solute carrier family 22 member 4; assay: TP_TRANSPORTER: inhibition of TEA uptake (TEA: 60 uM, Quinine: 1000 uM) in Xenopus laevis oocytes; format: functional, cell-based; design: scale not given: the % may be the effect or the level left; details: oocyte
[21] = target: T1, Solute carrier family 22 member 4; assay: TP_TRANSPORTER: inhibition of TEA uptake (TEA: 60 uM, Spermidine: 5000 uM) in Xenopus laevis oocytes; format: functional, cell-based; details: oocyte
[22] = substrate: CC[N+](CC)(CC)CC; assay: cells, lysate or membranes named

With `COc1ccc(CCN(C)CCCC(C#N)(c2ccc(OC)c(OC)c2)C(C)C)cc1OC` (stereo unspecified) the activity at 1000 µM [1] was 8.8% and the Activity [2] was “substrate [+]”.

`Nc1ccc(C(=O)NCC(=O)O)cc1` [AMINOHIPPURIC ACID] was tested, and the Activity [3] was “is not an inhibitor [-]”.

For `N=C(N)NCCC[C@H](N)C(=O)O` [ARGININE], the Activity [4] was “is not an inhibitor [-]”.

`C[N+](C)(C)CC(O)CC(=O)[O-]` (stereo unspecified) [CARNITINE] was tested, and the activity at 1000 µM [5] was 32.5% and the Activity [2] was “substrate [+]”.

For `O=C(Cc1cccs1)N[C@@H]1C(=O)N2C(C(=O)[O-])=C(C[n+]3ccccc3)CS[C@H]12` [CEPHALORIDINE], the activity at 1000 µM [6] was 35.7%.

`C[N+](C)(C)CCO` [CHOLINE] gave an activity at 5000 µM [7] of 73.2%.

`Clc1cccc(Cl)c1N=C1NCCN1` [CLONIDINE] gave an activity at 1000 µM [8] of 70.9%.

`C[N+](C)(C)C[C@@H](O)CC(=O)[O-]` [D-CARNITINE] gave an activity at 1000 µM [9] of 53.9%.

`N=C(N)N` [GUANIDINE] gave an activity at 5000 µM [10] of 89.6%.

With `C[C@H]1COc2c(N3CCN(C)CC3)c(F)cc3c(=O)c(C(=O)O)cn1c23.C[C@H]1COc2c(N3CCN(C)CC3)c(F)cc3c(=O)c(C(=O)O)cn1c23.O` [LEVOFLOXACIN] the Activity [11] was 63.6%.

In the case of `NCCCC[C@H](N)C(=O)O` [LYSINE], the Activity [12] is reported as “is not an inhibitor [-]”.

`CN1CCC[C@H]1c1cccnc1` [NICOTINE] showed an activity at 1000 µM [13] of 71.6%.

For `CNC(=O)c1cccnc1` [NICOTINYL METHYLAMIDE], the Activity [14] was “is not an inhibitor [-]”.

For `CC1COc2c(N3CCN(C)CC3)c(F)cc3c(=O)c(C(=O)O)cn1c23` (stereo unspecified) [OFLOXACIN], the activity at 1000 µM [15] was 61.4%.

In the case of `CC1(C)S[C@@H]2[C@H](NC(=O)Cc3ccccc3)C(=O)N2[C@H]1C(=O)O` [PENICILLIN G], the Activity [16] is reported as “is not an inhibitor [-]” and the Activity [2] is reported as “is not a substrate [-]”.

With `CCN(CC)CCNC(=O)c1ccc(N)cc1` [PROCAINAMIDE] the activity at 1000 µM [17] was 15.6%.

For `COc1ccc(CN(CCN(C)C)c2ccccn2)cc1` [PYRILAMINE], the activity at 1000 µM [18] was 0% and the Activity [2] was “substrate [+]”.

In the case of `C=C[C@H]1C[N@@]2CC[C@H]1C[C@@H]2[C@@H](O)c1ccnc2ccc(OC)cc12` [QUINIDINE], the activity at 1000 µM [19] is reported as 15.2% and the Activity [2] is reported as “substrate [+]”.

Work on `C=C[C@H]1C[N@@]2CC[C@H]1C[C@H]2[C@H](O)c1ccnc2ccc(OC)cc12` [QUININE] yielded an Activity [20] of 24.6%.

`NCCCCNCCCN` [SPERMIDINE] was tested, and the Activity [21] was “is not an inhibitor [-]”.

B1: Solute carrier family 22 member 4 (Homo sapiens) (protein)
chain: T1 sequence (Q9H015 whole entry)
Work on B1 yielded a Km [22] of 436 µM.
